Test results published in US10844049B2, “GLP-1R agonists and uses thereof” (QILU REGOR THERAPEUTICS INC., priority 2018, dated 2020).

biological target: GLP1R (Homo sapiens, UniProt P43220); test: GLP1R cAMP HTRF assay, HEK293/GLP-1R/CRE/Luc (HEK293T cells); format: cell-based; conditions: read-out: EC50
Description: GLP-1R-mediated agonist activity was determined with a cell-based functional assay utilizing an HTRF (Homogeneous Time-Resolved Fluorescence) cAMP detection kit (cAMP Dynamic 2 Assay Kit; CisBio cat #62AM4PEC) that measures cAMP levels in the cell. The method is a competitive immunoassay between native cAMP produced by the cells and exogenous cAMP labeled with the dye d2. The tracer binding is visualized by a mAb anti-cAMP labeled with Cryptate. The specific signal (i.e., energy transfer) is inversely proportional to the concentration of cAMP in either standard or experimental sample.
A cell line stably expressing the receptor was isolated.
Varying concentrations of each compound to be tested (in DMSO) were diluted in DMSO to obtain 200× compound working solution first and then 50 nl compounds were added to a white 384-well assay plate (Greiner 784075) with ECHO. The final DMSO concentration was 0.5%. The compound concentration range may be adjusted at any time.
Cells were removed from cryopreservation, re-suspended in 5 mL of Dulbecco's Phosphate Buffered Saline (DPBS-Sigma Cat # D8537) and centrifuged at 900 g for 5 min at 22° C. The cell pellet was then re-suspended in 1 mL of assay buffer [DPBS with 500 μM IBMX (Sigma #15879) and 0.1% BSA (Sigma # A1933). IBMX and BSA were freshly added on the day of assay]. A 10 μL sample of the cell suspension was counted on an Invitrogen Countess II to determine cell viability and cell count per mL. The remaining cell suspension was then adjusted with assay buffer to deliver 1000 viable cells per well using a Matrix Combi Multidrop reagent dispenser. 10 μL cell suspensions were added to each well of the assay plate which already contains compound. The plate was sealed and incubated at 37° C. with 5% CO2 for 30 minutes.
Following the 30 minute incubation, 5 μL of labeled d2 cAMP and 5 μL of anti-cAMP antibody (both diluted 1:20 in cell lysis buffer; as described in the manufacturer's assay protocol) were added to each well of the assay plate. The plates w ere then incubated at room temperature and after 60 minutes, changes in the HTRF signal were read with an Envision multi-label plate reader using excitation of 330 nm and emissions of 615 and 665 nm. Raw data were converted to nM cAMP by interpolation from a cAMP standard curve (as described in the manufacturer's assay protocol) and the percent effect was determined relative to a saturating concentration of the full agonist GLP-17-37 (10 nM) included on each plate. EC50 determinations were made from agonist dose-response curves analyzed with a curve fitting program using a 4-parameter logistic dose response equation.
3) Anti-cAMP antibody-cryptate working solution preparation • c) The lyophilisate was reconstituted with appropriate amount of distilled water according to manufacturer's instruction to make working stock which can be aliquoted and frozen (−20° C.). • d) The working stock solution was diluted 1:20 in the conjugate and lysis buffer before use. Procedures Procedures for Cell Suspension Preparation • 1. Frozen cells were thawed very briefly in a 37° C. water bath under sterile conditions until just before ice completely melt (for about 1 minute) with a continuous agitation. Caution was taken because a longer incubation could result in cell death. • 2. DMSO was removed from the media by carefully transferring thawed cells to a sterile 15/50 mL tube, filling a tube with 10-50 mL of complete media pre-warmed to 37° C., and allowing the cells to sit 5 min before centrifuging at 900 rpm for 5 minutes for cell collection. • 3. The cells were resuspended with assay buffer. • 4. For stable GLP1-R assay, the optimized cell density is 1000 cells/well. Caution was taken because cell density optimization was crucial and needed to be optimized in different laboratories. The level of cAMP produced by the cells must fall within the linear range of the standard curve.

Sequence of GLP1R (P43220 24-463): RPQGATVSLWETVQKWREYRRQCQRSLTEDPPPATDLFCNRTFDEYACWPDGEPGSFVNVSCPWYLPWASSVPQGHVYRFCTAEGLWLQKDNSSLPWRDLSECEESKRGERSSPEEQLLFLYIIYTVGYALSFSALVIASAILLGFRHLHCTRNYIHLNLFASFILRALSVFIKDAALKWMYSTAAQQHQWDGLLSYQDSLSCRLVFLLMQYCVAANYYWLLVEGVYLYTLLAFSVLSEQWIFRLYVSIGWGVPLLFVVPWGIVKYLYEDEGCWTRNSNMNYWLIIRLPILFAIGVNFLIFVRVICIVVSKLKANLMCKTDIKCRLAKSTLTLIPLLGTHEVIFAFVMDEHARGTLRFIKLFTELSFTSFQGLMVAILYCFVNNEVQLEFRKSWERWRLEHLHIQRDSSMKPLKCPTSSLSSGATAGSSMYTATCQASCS

Row | SMILES | EC50 [nM]
1 | CCn1cnc(Cn2c(CN3CC=C(c4cccc(OCc5ccc(C#N)cc5F)n4)CC3)nc3ccc(C(=O)O)cc32)c1 [Compound 183, 2-((6-((4-cyano-2-fluorobenzyl)oxy)-3′,6′-dihydro-[2H′-bipyridin]-1′(2′H)-yl)methyl)-1-((1-ethyl-1H-imidazol-4-yl)methyl)-1H-benzo[d]imidazole-6-carboxylic acid] | ≤ 150
2 | O=C(O)c1ccc2nc(CN3CCN(c4cccc(OCc5ccc(C(F)(F)F)cc5)c4)CC3)n(C[C@@H]3CCO3)c2c1 [Compound 189] | ≤ 150
3 | N#Cc1ccc(COc2cc(C3=CCN(Cc4nc5ccc(C(=O)O)cc5n4C[C@@H]4CCO4)CC3)ccc2F)c(F)c1 [Compound 204, (S)-2-((4-(3-((4-cyano-2-fluorobenzyl)oxy)-4-fluorophenyl)-3,6-dihydropyridin-1(2H)-yl)methyl)-1-(oxetan-2-ylmethyl)-1H-benzo[d]imidazole-6-carboxylic acid] | ≤ 15
4 | Cc1c(C(=O)O)ccc2nc(CN3CC=C(c4cccc(OCc5ccc(Cl)cc5)n4)CC3)n(C[C@@H]3CCO3)c12 [Compound 110, (S)-2-((6-((4-chlorobenzyl)oxy)-3′,6′-dihydro-[2,4′-bipyridin]-1′(2′H)-yl)methyl)-7-methyl-1-(oxetan-2-ylmethyl)-1H-benzo[d]imidazole-6-carboxylic add] | ≤ 15
5 | O=C(O)c1ccc2nc(CN3CC=C(c4ccnc(OCc5ccc(C#CC6CC6)cc5F)n4)CC3)n(C[C@@H]3CCO3)c2c1 [Compound 201, (S)-2-((4-(2-((4-(cyclopropylethynyl)-2-fluorobenzyl)oxy)pyrimidin-4-yl)-3,6-dihydropyridin-1(2H)-yl)methyl)-1-(oxetan-2-ylmethyl)-1H-benzo[d]imidazole-6-carboxylic acid] | ≤ 15
6 | O=C(O)c1ccc2nc(CN3CC=C(c4cccc(NC5CCCc6cc(Cl)ccc65)n4)CC3)n(C[C@@H]3CCO3)c2c1 (stereo partly drawn) [Compound 104, 2-((6-((6-chloro-1,2,3,4-tetrahydronaphthalen-1-yl)amino)-36′-dihydro-[2,4′-bipyridin]-1′(2′H)-yl)methyl)-1-(((S)-oxetan-2-yl)methyl)-1H-benzo[d]imidazole-6-carboxylic add] | ≤ 1000
7 | O=C(O)c1ccc2nc(CN3CC=C(c4nc(OCc5ccc(Cl)cc5F)c(F)cc4F)CC3)n(C[C@@H]3CCO3)c2c1 [Compound 131, (S)-2-((4-(6-(4-chloro-2-fluorobenzyloxy)-3,5-difluoropyridin-2-yl)-5,6-dihydropyridin-1(2H)-yl)methyl)-1-(oxetan-2-ylmethyl)-1H-benzo[d]imidazole-6-carboxylic add] | ≤ 15
8 | O=C(O)c1ccc2nc(CN3CCC(N4Cc5ccccc5N(CCc5ccc(Cl)cc5F)C4=O)CC3)n(C[C@@H]3CCO3)c2c1 [Compound 53, (S)-2-((4-(1-(4-chloro-2-fluorophenethyl)-2-oxo-1,4-dihydroquinazolin-3(2H)-yl)piperidin-1-yl)methyl)-1-(oxetan-2-ylmethyl)-1H-benzo[d]imidazole-6-carboxylic acid] | > 1000
9 | Cn1ccnc1Cn1c(CN2CCN(c3ccc4c(n3)N(Cc3ccc(Cl)cc3F)CCO4)CC2)nc2ccc(C(=O)O)cc21 [Compound 5, 2-((4-(4-(4-chloro-2-fluorobenzyl)-3,4-dihydro-2 h-pyrido[3,2-b][1,4]oxazin-6-yl)piperazin-1-yl)methyl)-1-((l-methyl-1 h-imidazol-2-yl)methyl)-1 h-benzo[d] imidazole-6-carboxylic acid] | > 1000
10 | O=C(O)c1ccc2nc(CN3CCN(c4ccc5ccn(Cc6ccc(Cl)cc6F)c5n4)CC3)n(C[C@@H]3CCO3)c2c1 [Compound 13, (S)-2-((4-(1-(4-chloro-2-fluorobenzyl)-1 h-pyrrolo[2,3-b]pyridin-6-yl)piperazin-1-yl)methyl)-1-(oxetan-2-ylmethyl)-1 h-benzo[d]imidazole-6-carboxylic add] | ≤ 150
11 | O=C(O)c1ccc2nc(CN3CC=C(c4nc(OCc5ccc(C(F)(F)F)nc5)c(F)cc4F)CC3)n(C[C@@H]3CCO3)c2c1 [Compound 220, (S)-2-((3,5-difluoro-6-((6-(trifluoromethyl)pyridin-3-yl)methoxy)-5′,6′-dihydro-[2,4′-bipyridin]-1′(2′H)-yl)methyl)-1-(oxetan-2-ylmethyl)-1H-benzo[d]imidazole-6-carboxylic acid] | ≤ 15
12 | O=C(O)c1ccc2nc(CN3CC=C(c4cccc(OCc5cc(Cl)cc(C(F)(F)F)c5)n4)CC3)n(C[C@@H]3CCO3)c2c1 [Compound 143, (S)-2-((6-((3-chloro-5-(trifluoromethyl)benzyl)oxy)-3′,6′-dihydro-[2H′-bipyridin]-1′(2′H)-yl)methyl)-1-(oxetan-2-ylmethyl)-1H-benzo[d]imidazole-6-carboxylic acid] | ≤ 15

Continued, values first:

Row | EC50 [nM] | SMILES
13 | ≤ 15 | O=C(O)c1ccc2nc(CN3CCN(c4cc(F)cc(OCc5ccc(Cl)cc5F)c4)CC3)n(C[C@@H]3CCO3)c2c1 [Compound 185, (S)-2-((4-(3-((4-chloro-2-fluorobenzyl)oxy)-5-fluorophenyl)piperazin-1-yl)methyl)-1-(oxetan-2-ylmethyl)-1H-benzo[d]imidazole-6-carboxylic acid]
14 | > 1000 | O=C(O)c1ccc2nc(CN3CCN(c4ccc5c(n4)N(Cc4ccc(Cl)cc4F)CCC5)CC3)n(C[C@@H]3CCO3)c2c1 [Compound 3, (S)-2-((4-(8-(4-chloro-2-fluorobenzyl)-5,6,7,8-tetrahydro-1,8-naphthyridin-2yl)piperazin-1-yl)methyl)-1-(oxetan-2-ylmethyl)-1 h-benzo[d]imidazole-6-carboxylic acid]
15 | ≤ 15 | O=C(O)c1ccc2nc(CN3CCN(c4cccc(OCc5ccc(Cl)cc5F)n4)CC3=O)n(C[C@@H]3CCO3)c2c1 [Compound 106, (S)-2-((4-(6-((4-chloro-2-fluorobenzyl)oxy)pyridin-2-yl)-2-oxopiperazin-1-yl)methyl)-1-(oxetan-2-ylmethyl)-1H-benzo[d]imidazole-6-carboxylic add]
16 | ≤ 15 | O=C(O)c1ccc2nc(CN3CC=C(c4ncc(F)c(OCc5ccc(Cl)cc5F)n4)CC3)n(C[C@@H]3CCO3)c2c1 [Compound 123]
17 | ≤ 150 | O=C(O)c1ccc2nc(CN3CC=C(c4cc(OCc5ccc(Cl)cc5F)ncc4F)CC3)n(C[C@@H]3CCO3)c2c1 [Compound 128, (S)-2-((2′-((4-chloro-2-fluorobenzyl)oxy)-5′-fluoro-3,6-dihydro-[4,4′-bipyridin]-1(2H)-yl)methyl)-1-(oxetan-2-ylmethyl)-1H-benzo[d]imidazole-6-carboxylic acid]
18 | ≤ 1000 | O=C(O)c1ccc2nc(CN3CCN(c4cc5ccccc5c(OCc5ccc(Cl)cc5F)n4)CC3)n(C[C@@H]3CCO3)c2c1 [Compound 36, (S)-2-((4-(1-((4-chloro-2-fluorobenzyl)oxy)isoquinolin-3-yl)piperazin-1-yl)methyl)-1-(oxetan-2-ylmethyl)-1 h-benzo[d]imidazole-6-carboxylic acid]
19 | ≤ 15 | O=C(O)c1ccc2nc(CN3CC=C(c4cc(OCc5ccc(Cl)cc5F)ccc4F)CC3)n(C[C@@H]3CCO3)c2c1 [Compound 43, (S)-2-((4-(5-((4-chloro-2-fluorobenzyl)oxy)-2-fluorophenyl)-3,6-dihydropyridin-1(2H)-yl)methyl)-1-(oxetan-2-ylmethyl)-1H-benzo[d]imidazole-6-carboxylic add]
20 | ≤ 150 | O=C(O)c1ccc2nc(CN3CCN(c4cc(OCc5ccc(Cl)cc5F)ccc4F)CC3)n(C[C@@H]3CCO3)c2c1 [Compound 186, (S)-2-((4-(5-(4-chloro-2-fluorobenzyloxy)-2-fluorophenyl)piperazin-1-yl)methyl)-1-(oxetan-2-ylmethyl)-1H-benzo[d]imidazole-6-carboxylic acid]
